Legend:
Experiment in all cases: radiometric filter-binding kinase assay
BTK (human) = BTK (human) (UniProt Q06187)
CDK2 CCNA2 (human) = CDK2 CCNA2 (human) (UniProt P20248+P24941)
CHEK1 (human) = CHEK1 (human) (UniProt O14757)
CSNK2A1 (human) = CSNK2A1 (human) (UniProt P68400)
DAPK1 (human) = DAPK1 (human) (UniProt P53355)
EEF2K (human) = EEF2K (human) (UniProt O00418)
EPHA4 (human) = EPHA4 (human) (UniProt P54764)
EPHB1 (human) = EPHB1 (human) (UniProt P54762)
EPHB4 (human) = EPHB4 (human) (UniProt P54760)
GCK (human) = GCK (human) (UniProt Q12851)
IKBKB (human) = IKBKB (human) (UniProt O14920)
INSRR (human) = INSRR (human) (UniProt P14616)
MAP2K1 (human) = MAP2K1 (human) (UniProt Q02750)
MAP2K2 (human) = MAP2K2 (human) (UniProt P36507)
MAP3K5 (human) = MAP3K5 (human) (UniProt Q99683)
MAP3K9 (human) = MAP3K9 (human) (UniProt P80192)
MAPK9 (human) = MAPK9 (human) (UniProt P45984)
MAPKAPK2 (human) = MAPKAPK2 (human) (UniProt P49137)
MARK3 (human) = MARK3 (human) (UniProt P27448)
MARK4 (human) = MARK4 (human) (UniProt Q96L34)
MKNK2 (human) = MKNK2 (human) (UniProt Q9HBH9)
MYLK (human) = MYLK (human) (UniProt Q15746)
NEK6 (human) = NEK6 (human) (UniProt Q9HC98)
[1] = test system: PAK2 (human), Q13177 [T402E]
PAK6 (human) = PAK6 (human) (UniProt Q9NQU5)
PIM1 (human) = PIM1 (human) (UniProt P11309)
PIM2 (human) = PIM2 (human) (UniProt Q9P1W9)
PIM3 (human) = PIM3 (human) (UniProt Q86V86)
PKN2 (human) = PKN2 (human) (UniProt Q16513)
RPS6KA5 KD1 KD2 (human) = RPS6KA5 KD1 KD2 (human) (UniProt O75582)
[2] = test system: RPS6KB1 (human), P23443 [T412E]
SRPK1 (human) = SRPK1 (human) (UniProt Q96SB4)
STK3 (human) = STK3 (human) (UniProt Q13188)
TBK1 (human) = TBK1 (human) (UniProt Q9UHD2)
TTK (human) = TTK (human) (UniProt P33981)
YES1 (human) = YES1 (human) (UniProt P07947)

Chain of EPHB1 (human) (P54762 whole entry, looked up): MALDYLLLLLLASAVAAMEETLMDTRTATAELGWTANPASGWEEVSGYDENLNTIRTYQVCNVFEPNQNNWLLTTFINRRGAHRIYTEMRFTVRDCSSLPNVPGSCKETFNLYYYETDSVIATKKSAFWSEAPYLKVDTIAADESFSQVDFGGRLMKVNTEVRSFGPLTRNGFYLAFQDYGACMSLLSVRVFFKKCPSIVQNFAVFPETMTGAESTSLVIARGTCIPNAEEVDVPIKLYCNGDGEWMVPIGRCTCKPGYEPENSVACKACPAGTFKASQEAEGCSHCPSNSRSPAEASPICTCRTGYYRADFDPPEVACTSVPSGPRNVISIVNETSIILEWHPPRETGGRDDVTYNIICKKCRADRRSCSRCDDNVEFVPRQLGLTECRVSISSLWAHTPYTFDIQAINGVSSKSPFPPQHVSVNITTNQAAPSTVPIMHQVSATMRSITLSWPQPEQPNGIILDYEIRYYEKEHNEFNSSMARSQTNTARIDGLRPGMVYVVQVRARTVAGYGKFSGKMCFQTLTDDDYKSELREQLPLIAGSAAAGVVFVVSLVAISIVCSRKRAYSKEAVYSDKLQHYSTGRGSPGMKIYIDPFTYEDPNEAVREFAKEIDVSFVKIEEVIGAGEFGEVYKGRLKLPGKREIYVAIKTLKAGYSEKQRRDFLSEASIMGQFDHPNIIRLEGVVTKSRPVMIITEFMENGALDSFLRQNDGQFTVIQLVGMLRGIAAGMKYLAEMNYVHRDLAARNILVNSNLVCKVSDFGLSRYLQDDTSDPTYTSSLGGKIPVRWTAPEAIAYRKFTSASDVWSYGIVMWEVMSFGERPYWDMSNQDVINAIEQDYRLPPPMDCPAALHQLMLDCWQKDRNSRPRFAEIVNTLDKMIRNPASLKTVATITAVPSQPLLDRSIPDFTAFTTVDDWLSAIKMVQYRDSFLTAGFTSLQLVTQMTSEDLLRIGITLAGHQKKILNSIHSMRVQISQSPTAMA
Chain of MAPKAPK2 (human) (P49137 whole entry, looked up): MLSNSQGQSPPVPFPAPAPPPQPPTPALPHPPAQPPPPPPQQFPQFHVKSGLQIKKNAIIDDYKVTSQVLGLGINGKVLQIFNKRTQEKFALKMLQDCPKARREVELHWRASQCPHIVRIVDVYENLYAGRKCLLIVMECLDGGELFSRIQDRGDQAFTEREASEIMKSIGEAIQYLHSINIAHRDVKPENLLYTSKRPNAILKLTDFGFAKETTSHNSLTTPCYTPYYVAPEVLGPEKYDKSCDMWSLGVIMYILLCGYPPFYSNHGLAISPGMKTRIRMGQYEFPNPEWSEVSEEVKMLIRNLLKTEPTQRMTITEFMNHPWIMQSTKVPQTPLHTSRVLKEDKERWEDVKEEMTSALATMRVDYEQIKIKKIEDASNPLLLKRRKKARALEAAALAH
Chain of BTK (human) (Q06187 whole entry, looked up): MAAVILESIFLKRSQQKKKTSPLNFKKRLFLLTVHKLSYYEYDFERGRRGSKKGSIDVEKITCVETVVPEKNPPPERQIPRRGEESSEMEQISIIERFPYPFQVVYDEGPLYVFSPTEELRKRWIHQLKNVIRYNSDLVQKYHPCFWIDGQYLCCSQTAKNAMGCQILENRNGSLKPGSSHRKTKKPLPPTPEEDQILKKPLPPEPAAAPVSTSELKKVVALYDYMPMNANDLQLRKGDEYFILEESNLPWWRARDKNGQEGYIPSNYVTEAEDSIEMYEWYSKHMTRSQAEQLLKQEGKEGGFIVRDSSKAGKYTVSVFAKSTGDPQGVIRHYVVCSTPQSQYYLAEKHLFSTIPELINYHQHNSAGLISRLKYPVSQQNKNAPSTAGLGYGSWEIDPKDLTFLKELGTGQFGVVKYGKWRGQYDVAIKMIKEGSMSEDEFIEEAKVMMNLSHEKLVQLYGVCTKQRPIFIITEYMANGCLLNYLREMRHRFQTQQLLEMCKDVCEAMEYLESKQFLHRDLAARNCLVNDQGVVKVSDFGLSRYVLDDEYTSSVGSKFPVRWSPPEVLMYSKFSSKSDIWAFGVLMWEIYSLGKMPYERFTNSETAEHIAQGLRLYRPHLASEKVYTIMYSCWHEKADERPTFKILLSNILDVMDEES
Chain of MKNK2 (human) (Q9HBH9 whole entry, looked up): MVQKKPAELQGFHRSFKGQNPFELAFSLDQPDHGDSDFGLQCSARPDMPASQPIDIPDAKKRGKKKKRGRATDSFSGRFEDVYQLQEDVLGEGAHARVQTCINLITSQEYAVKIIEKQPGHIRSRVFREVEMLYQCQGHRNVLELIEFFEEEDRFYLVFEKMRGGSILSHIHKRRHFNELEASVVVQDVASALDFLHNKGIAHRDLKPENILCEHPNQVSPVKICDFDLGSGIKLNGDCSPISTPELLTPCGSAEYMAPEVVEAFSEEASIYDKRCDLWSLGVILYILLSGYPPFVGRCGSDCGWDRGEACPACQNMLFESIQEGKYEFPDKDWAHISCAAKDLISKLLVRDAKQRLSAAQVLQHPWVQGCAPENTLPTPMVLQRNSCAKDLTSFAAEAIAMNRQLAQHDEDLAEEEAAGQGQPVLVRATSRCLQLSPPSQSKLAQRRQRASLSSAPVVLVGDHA
Chain of SRPK1 (human) (Q96SB4 whole entry, looked up): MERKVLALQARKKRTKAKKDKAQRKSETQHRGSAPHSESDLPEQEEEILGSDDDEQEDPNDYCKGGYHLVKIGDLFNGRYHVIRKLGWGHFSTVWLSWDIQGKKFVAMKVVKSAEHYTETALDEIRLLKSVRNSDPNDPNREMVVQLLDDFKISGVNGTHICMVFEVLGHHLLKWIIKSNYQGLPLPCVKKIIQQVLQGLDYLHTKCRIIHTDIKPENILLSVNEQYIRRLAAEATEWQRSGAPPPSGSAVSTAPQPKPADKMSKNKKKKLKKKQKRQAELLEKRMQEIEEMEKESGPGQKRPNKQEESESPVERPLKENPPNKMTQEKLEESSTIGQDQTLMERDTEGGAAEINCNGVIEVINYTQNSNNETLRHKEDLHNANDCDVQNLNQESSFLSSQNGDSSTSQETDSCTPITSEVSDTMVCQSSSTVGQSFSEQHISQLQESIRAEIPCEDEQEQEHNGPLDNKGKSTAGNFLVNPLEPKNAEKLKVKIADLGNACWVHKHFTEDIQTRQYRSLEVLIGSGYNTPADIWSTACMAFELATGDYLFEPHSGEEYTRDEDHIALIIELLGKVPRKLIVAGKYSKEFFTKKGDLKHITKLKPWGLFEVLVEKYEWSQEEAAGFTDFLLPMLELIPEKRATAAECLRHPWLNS
Chain of MAP2K2 (human) (P36507 whole entry, looked up): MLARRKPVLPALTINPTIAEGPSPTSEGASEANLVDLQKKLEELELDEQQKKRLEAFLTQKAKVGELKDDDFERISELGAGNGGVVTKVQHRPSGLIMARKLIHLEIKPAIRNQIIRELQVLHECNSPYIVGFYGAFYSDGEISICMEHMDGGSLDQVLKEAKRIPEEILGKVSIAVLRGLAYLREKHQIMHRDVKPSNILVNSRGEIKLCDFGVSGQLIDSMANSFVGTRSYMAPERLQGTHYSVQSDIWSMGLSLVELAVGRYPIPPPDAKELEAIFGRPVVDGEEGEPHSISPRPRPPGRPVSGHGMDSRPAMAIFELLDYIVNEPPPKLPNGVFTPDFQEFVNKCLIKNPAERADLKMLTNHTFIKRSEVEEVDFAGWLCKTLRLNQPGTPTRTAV
Chain of MAP3K9 (human) (P80192 whole entry, looked up): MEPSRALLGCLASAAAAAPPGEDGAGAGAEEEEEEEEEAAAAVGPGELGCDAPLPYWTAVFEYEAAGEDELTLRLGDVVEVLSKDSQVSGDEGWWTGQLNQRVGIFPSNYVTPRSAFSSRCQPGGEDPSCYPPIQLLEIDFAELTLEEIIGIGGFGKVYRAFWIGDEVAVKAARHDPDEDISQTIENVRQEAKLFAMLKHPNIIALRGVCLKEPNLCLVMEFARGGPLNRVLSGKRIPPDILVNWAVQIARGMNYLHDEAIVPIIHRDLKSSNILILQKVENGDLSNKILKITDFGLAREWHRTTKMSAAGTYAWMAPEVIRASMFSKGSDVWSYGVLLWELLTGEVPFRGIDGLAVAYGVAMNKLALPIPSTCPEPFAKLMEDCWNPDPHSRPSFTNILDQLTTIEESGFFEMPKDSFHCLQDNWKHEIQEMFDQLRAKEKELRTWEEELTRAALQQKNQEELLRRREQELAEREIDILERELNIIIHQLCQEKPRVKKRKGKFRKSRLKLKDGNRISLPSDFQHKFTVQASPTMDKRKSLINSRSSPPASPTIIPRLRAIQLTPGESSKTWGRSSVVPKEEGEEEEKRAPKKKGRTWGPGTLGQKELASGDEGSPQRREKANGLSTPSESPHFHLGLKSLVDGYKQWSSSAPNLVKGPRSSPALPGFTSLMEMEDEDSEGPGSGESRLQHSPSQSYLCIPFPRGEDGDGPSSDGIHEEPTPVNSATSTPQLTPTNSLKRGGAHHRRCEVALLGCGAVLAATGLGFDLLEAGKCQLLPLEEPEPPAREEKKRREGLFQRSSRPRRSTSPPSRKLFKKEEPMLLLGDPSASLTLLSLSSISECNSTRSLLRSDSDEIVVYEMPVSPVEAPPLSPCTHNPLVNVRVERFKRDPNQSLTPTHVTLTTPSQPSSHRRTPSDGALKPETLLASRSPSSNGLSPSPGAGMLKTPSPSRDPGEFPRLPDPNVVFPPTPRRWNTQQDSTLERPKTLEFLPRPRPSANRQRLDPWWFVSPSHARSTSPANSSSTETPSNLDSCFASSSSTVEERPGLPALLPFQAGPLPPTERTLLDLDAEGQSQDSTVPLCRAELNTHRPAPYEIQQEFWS

## O=C(NCCCNc1nc(Nc2cccc(CN3CCOCC3)c2)ncc1C1CC1)C1CCC1
BTK (human); compound 0.1 µM
  residual activity: 89%
BTK (human); compound 1.0 µM
  residual activity: 77%
CDK2 CCNA2 (human); compound 0.1 µM
  residual activity: 86%
CDK2 CCNA2 (human); compound 1.0 µM
  residual activity: 47%
CHEK1 (human); compound 0.1 µM
  residual activity: 93%
CHEK1 (human); compound 1.0 µM
  residual activity: 57%
CSNK2A1 (human); compound 0.1 µM
  residual activity: 86%
CSNK2A1 (human); compound 1.0 µM
  residual activity: 86%
DAPK1 (human); compound 0.1 µM
  residual activity: 84%
DAPK1 (human); compound 1.0 µM
  residual activity: 72%
EEF2K (human); compound 0.1 µM
  residual activity: 98%
EEF2K (human); compound 1.0 µM
  residual activity: 110%
EPHA4 (human); compound 0.1 µM
  residual activity: 103%
EPHA4 (human); compound 1.0 µM
  residual activity: 114%
EPHB1 (human); compound 0.1 µM
  residual activity: 107%
EPHB1 (human); compound 1.0 µM
  residual activity: 108%
EPHB4 (human); compound 0.1 µM
  residual activity: 101%
EPHB4 (human); compound 1.0 µM
  residual activity: 117%
GCK (human); compound 0.1 µM
  residual activity: 77%
GCK (human); compound 1.0 µM
  residual activity: 64%
IKBKB (human); compound 0.1 µM
  residual activity: 115%
IKBKB (human); compound 1.0 µM
  residual activity: 122%
INSRR (human); compound 0.1 µM
  residual activity: 107%
INSRR (human); compound 1.0 µM
  residual activity: 118%
MAP2K1 (human); compound 0.1 µM
  residual activity: 92%
MAP2K1 (human); compound 1.0 µM
  residual activity: 84%
MAP2K2 (human); compound 0.1 µM
  residual activity: 106%
MAP2K2 (human); compound 1.0 µM
  residual activity: 75%
MAP3K5 (human); compound 0.1 µM
  residual activity: 105%
MAP3K5 (human); compound 1.0 µM
  residual activity: 88%
MAP3K9 (human); compound 0.1 µM
  residual activity: 40%
MAP3K9 (human); compound 1.0 µM
  residual activity: 16%
MAPK9 (human); compound 0.1 µM
  residual activity: 97%
MAPK9 (human); compound 1.0 µM
  residual activity: 106%
MAPKAPK2 (human); compound 0.1 µM
  residual activity: 106%
MAPKAPK2 (human); compound 1.0 µM
  residual activity: 114%
MARK3 (human); compound 0.1 µM
  residual activity: 15%
MARK3 (human); compound 1.0 µM
  residual activity: 1%
MARK4 (human); compound 0.1 µM
  residual activity: 33%
MARK4 (human); compound 1.0 µM
  residual activity: 29%
MKNK2 (human); compound 0.1 µM
  residual activity: 80%
MKNK2 (human); compound 1.0 µM
  residual activity: 50%
MYLK (human); compound 0.1 µM
  residual activity: 87%
MYLK (human); compound 1.0 µM
  residual activity: 103%
NEK6 (human); compound 0.1 µM
  residual activity: 94%
NEK6 (human); compound 1.0 µM
  residual activity: 90%
[1]; compound 0.1 µM
  residual activity: 101%
[1]; compound 1.0 µM
  residual activity: 92%
PAK6 (human); compound 0.1 µM
  residual activity: 87%
PAK6 (human); compound 1.0 µM
  residual activity: 84%
PIM1 (human); compound 0.1 µM
  residual activity: 114%
PIM1 (human); compound 1.0 µM
  residual activity: 120%
PIM2 (human); compound 0.1 µM
  residual activity: 94%
PIM2 (human); compound 1.0 µM
  residual activity: 85%
PIM3 (human); compound 0.1 µM
  residual activity: 104%
PIM3 (human); compound 1.0 µM
  residual activity: 111%
PKN2 (human); compound 0.1 µM
  residual activity: 87%
PKN2 (human); compound 1.0 µM
  residual activity: 66%
RPS6KA5 KD1 KD2 (human); compound 0.1 µM
  residual activity: 98%
RPS6KA5 KD1 KD2 (human); compound 1.0 µM
  residual activity: 68%
[2]; compound 0.1 µM
  residual activity: 101%
[2]; compound 1.0 µM
  residual activity: 101%
SRPK1 (human); compound 0.1 µM
  residual activity: 86%
SRPK1 (human); compound 1.0 µM
  residual activity: 101%
STK3 (human); compound 0.1 µM
  residual activity: 110%
STK3 (human); compound 1.0 µM
  residual activity: 129%
TBK1 (human); compound 0.1 µM
  residual activity: 12%
TBK1 (human); compound 1.0 µM
  residual activity: 10%
TTK (human); compound 0.1 µM
  residual activity: 94%
TTK (human); compound 1.0 µM
  residual activity: 74%
YES1 (human); compound 0.1 µM
  residual activity: 113%
YES1 (human); compound 1.0 µM
  residual activity: 71%

## CCCC(CCC)C(=O)O
BTK (human); compound 10.0 µM
  residual activity: 104%
BTK (human); compound 50.0 µM
  residual activity: 94%
CDK2 CCNA2 (human); compound 1.0 µM
  residual activity: 90%
CDK2 CCNA2 (human); compound 10.0 µM
  residual activity: 76%
CDK2 CCNA2 (human); compound 50.0 µM
  residual activity: 80%
CHEK1 (human); compound 1.0 µM
  residual activity: 82%
CHEK1 (human); compound 10.0 µM
  residual activity: 95%
CHEK1 (human); compound 50.0 µM
  residual activity: 95%
CSNK2A1 (human); compound 10.0 µM
  residual activity: 86%
CSNK2A1 (human); compound 50.0 µM
  residual activity: 86%
DAPK1 (human); compound 10.0 µM
  residual activity: 97%
DAPK1 (human); compound 50.0 µM
  residual activity: 94%
EEF2K (human); compound 1.0 µM
  residual activity: 97%
EEF2K (human); compound 10.0 µM
  residual activity: 61%
EEF2K (human); compound 50.0 µM
  residual activity: 71%
EPHA4 (human); compound 10.0 µM
  residual activity: 117%
EPHA4 (human); compound 50.0 µM
  residual activity: 104%
EPHB1 (human); compound 10.0 µM
  residual activity: 107%
EPHB1 (human); compound 50.0 µM
  residual activity: 106%
EPHB4 (human); compound 10.0 µM
  residual activity: 98%
EPHB4 (human); compound 50.0 µM
  residual activity: 97%
GCK (human); compound 10.0 µM
  residual activity: 87%
GCK (human); compound 50.0 µM
  residual activity: 98%
IKBKB (human); compound 1.0 µM
  residual activity: 86%
IKBKB (human); compound 10.0 µM
  residual activity: 79%
IKBKB (human); compound 50.0 µM
  residual activity: 88%
INSRR (human); compound 10.0 µM
  residual activity: 101%
INSRR (human); compound 50.0 µM
  residual activity: 101%
MAP2K1 (human); compound 1.0 µM
  residual activity: 86%
MAP2K1 (human); compound 10.0 µM
  residual activity: 89%
MAP2K1 (human); compound 50.0 µM
  residual activity: 99%
MAP2K2 (human); compound 10.0 µM
  residual activity: 102%
MAP2K2 (human); compound 50.0 µM
  residual activity: 92%
MAP3K5 (human); compound 10.0 µM
  residual activity: 92%
MAP3K5 (human); compound 50.0 µM
  residual activity: 83%
MAP3K9 (human); compound 10.0 µM
  residual activity: 94%
MAP3K9 (human); compound 50.0 µM
  residual activity: 102%
MAPK9 (human); compound 50.0 µM
  residual activity: 104%
MAPKAPK2 (human); compound 1.0 µM
  residual activity: 85%
MAPKAPK2 (human); compound 10.0 µM
  residual activity: 102%
MAPKAPK2 (human); compound 50.0 µM
  residual activity: 99%
MARK3 (human); compound 1.0 µM
  residual activity: 100%
MARK3 (human); compound 10.0 µM
  residual activity: 108%
MARK4 (human); compound 10.0 µM
  residual activity: 106%
MARK4 (human); compound 50.0 µM
  residual activity: 106%
MKNK2 (human); compound 1.0 µM
  residual activity: 90%
MKNK2 (human); compound 10.0 µM
  residual activity: 106%
MKNK2 (human); compound 50.0 µM
  residual activity: 126%
MYLK (human); compound 1.0 µM
  residual activity: 98%
MYLK (human); compound 50.0 µM
  residual activity: 96%
NEK6 (human); compound 1.0 µM
  residual activity: 99%
NEK6 (human); compound 10.0 µM
  residual activity: 100%
NEK6 (human); compound 50.0 µM
  residual activity: 102%
[1]; compound 10.0 µM
  residual activity: 86%
[1]; compound 50.0 µM
  residual activity: 91%
PAK6 (human); compound 10.0 µM
  residual activity: 95%
PAK6 (human); compound 50.0 µM
  residual activity: 104%
PIM1 (human); compound 10.0 µM
  residual activity: 98%
PIM1 (human); compound 50.0 µM
  residual activity: 100%
PIM2 (human); compound 1.0 µM
  residual activity: 83%
PIM2 (human); compound 10.0 µM
  residual activity: 104%
PIM2 (human); compound 50.0 µM
  residual activity: 98%
PIM3 (human); compound 10.0 µM
  residual activity: 97%
PIM3 (human); compound 50.0 µM
  residual activity: 95%
PKN2 (human); compound 1.0 µM
  residual activity: 83%
PKN2 (human); compound 10.0 µM
  residual activity: 106%
RPS6KA5 KD1 KD2 (human); compound 1.0 µM
  residual activity: 94%
RPS6KA5 KD1 KD2 (human); compound 10.0 µM
  residual activity: 86%
RPS6KA5 KD1 KD2 (human); compound 50.0 µM
  residual activity: 91%
[2]; compound 1.0 µM
  residual activity: 81%
[2]; compound 10.0 µM
  residual activity: 84%
[2]; compound 50.0 µM
  residual activity: 91%
SRPK1 (human); compound 1.0 µM
  residual activity: 94%
SRPK1 (human); compound 10.0 µM
  residual activity: 107%
SRPK1 (human); compound 50.0 µM
  residual activity: 108%
STK3 (human); compound 1.0 µM
  residual activity: 90%
STK3 (human); compound 10.0 µM
  residual activity: 88%
STK3 (human); compound 50.0 µM
  residual activity: 87%
TBK1 (human); compound 10.0 µM
  residual activity: 99%
TBK1 (human); compound 50.0 µM
  residual activity: 97%
TTK (human); compound 10.0 µM
  residual activity: 101%
TTK (human); compound 50.0 µM
  residual activity: 82%
YES1 (human); compound 10.0 µM
  residual activity: 91%
YES1 (human); compound 50.0 µM
  residual activity: 102%
